Experimental data as given in PubChem BioAssay (NCI).
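These data come from cells grown in 96-well plates and exposed to compound for 48 hours at five concentrations. Abbreviation: GI50, concentration required for 50% inhibition of growth. TGI denotes the concentration required for complete inhibition of growth.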

Assays:
Experiment in all cases: NCI tumour cell line growth inhibition, 48 h
[1] = test system: NCI-H23 lung
[2] = test system: SK-MEL-28 melanoma
[3] = test system: BT-549 breast
[4] = test system: T-47D breast
[5] = test system: CAKI-1 renal
[6] = test system: HT29 colon
[7] = test system: NCI-H226 lung
[8] = test system: PC-3 prostate
[9] = test system: SK-MEL-2 melanoma
[10] = test system: NCI-H522 lung
[11] = test system: TK-10 renal
[12] = test system: MDA-MB-231 breast
[13] = test system: HOP-92 NSCLC
[14] = test system: NCI-H460 lung
[15] = test system: COLO 205 colon
[16] = test system: HOP-62 NSCLC
[17] = test system: UACC-62 melanoma
[18] = test system: HCC-2998 colon
[19] = test system: SK-OV-3 ovarian
[20] = test system: SF-268 CNS
[21] = test system: IGROV1 ovarian
[22] = test system: HL-60(TB) leukemia
[23] = test system: MCF7 breast
[24] = test system: MALME-3M melanoma
[25] = test system: OVCAR-8 ovarian
[26] = test system: UACC-257 melanoma
[27] = test system: U251 CNS
[28] = test system: K-562 leukemia
[29] = test system: RPMI-8226 leukemia
[30] = test system: HCT-116 colon
[31] = test system: SF-539 CNS
[32] = test system: ACHN renal
[33] = test system: LOX IMVI melanoma
[34] = test system: NCI/ADR-RES ovarian
[35] = test system: 786-0 renal
[36] = test system: M14 melanoma
[37] = test system: KM12 colon
[38] = test system: OVCAR-3 ovarian
[39] = test system: SNB-75 CNS
[40] = test system: A549 NSCLC
[41] = test system: MDA-MB-435
[42] = test system: HS 578T breast
[43] = test system: HCT-15 colon
[44] = test system: UO-31 renal
[45] = test system: SK-MEL-5 melanoma
[46] = test system: RXF 393 renal
[47] = test system: OVCAR-4 ovarian
[48] = test system: SNB-19 CNS
[49] = test system: SN12C renal
[50] = test system: DU-145 prostate
[51] = test system: CCRF-CEM leukemia
[52] = test system: EKVX NSCLC
[53] = test system: MOLT-4 leukemia
[54] = test system: SF-295 CNS
[55] = test system: OVCAR-5 ovarian
[56] = test system: A498 renal
[57] = test system: SW-620 colon
[58] = test system: SR leukemia

## O=C(CCCCCNC1=CC(=O)c2ccccc2C1=O)NCCC[Te]c1ccccc1
[1]
  GI50: 0.336 µM
  TGI: 1.48 µM
[2]
  GI50: 1.21 µM
  TGI: 3.34 µM
[3]
  GI50: 0.297 µM
  TGI: 0.916 µM
[4]
  GI50: 0.676 µM
  TGI: 2.59 µM
[5]
  GI50: 1.7 µM
  TGI: 3.93 µM
[6]
  GI50: 0.377 µM
  TGI: 1.48 µM
[7]
  GI50: 0.335 µM
  TGI: 1.23 µM
[8]
  GI50: 0.25 µM
  TGI: 2.58 µM
[9]
  GI50: 2.79 µM
  TGI: 6.3 µM
[10]
  GI50: 1.75 µM
  TGI: 81.5 µM
[11]
  GI50: 2.05 µM
  TGI: 6.04 µM
[12]
  GI50: 0.236 µM
  TGI: 0.606 µM
[13]
  GI50: 0.583 µM
  TGI: 1.65 µM
[14]
  GI50: 0.197 µM
  TGI: 0.576 µM
[15]
  GI50: 0.416 µM
  TGI: 1.36 µM
[16]
  GI50: 0.272 µM
  TGI: 0.731 µM
[17]
  GI50: 1.32 µM
  TGI: 3.37 µM
[18]
  GI50: 0.798 µM
  TGI: 2.44 µM
[19]
  GI50: 0.487 µM
  TGI: 1.85 µM
[20]
  GI50: 0.359 µM
  TGI: 1.41 µM
[21]
  GI50: 0.518 µM
  TGI: 1.89 µM
[22]
  GI50: 0.315 µM
  TGI: 4.4 µM
[23]
  GI50: 0.327 µM
  TGI: 4.66 µM
[24]
  GI50: 2.21 µM
  TGI: 4.21 µM
[25]
  GI50: 0.446 µM
[26]
  GI50: 2.4 µM
  TGI: 6.33 µM
[27]
  GI50: 0.356 µM
  TGI: 1.87 µM
[28]
  GI50: 0.72 µM
  TGI: 3.83 µM
[29]
  GI50: 0.291 µM
  TGI: 1.04 µM
[30]
  GI50: 0.295 µM
  TGI: 0.98 µM
[31]
  GI50: 0.618 µM
  TGI: 2.15 µM
[32]
  GI50: 0.408 µM
  TGI: 1.49 µM
[33]
  GI50: 0.3 µM
  TGI: 1.4 µM
[34]
  GI50: 0.425 µM
  TGI: 4.62 µM
[35]
  GI50: 2 µM
  TGI: 4.17 µM
[36]
  GI50: 0.473 µM
  TGI: 1.86 µM
[37]
  GI50: 0.351 µM
  TGI: 1.3 µM
[38]
  GI50: 0.676 µM
  TGI: 2.22 µM
[39]
  GI50: 0.29 µM
  TGI: 1.48 µM
[40]
  GI50: 0.32 µM
  TGI: 1.54 µM
[41]
  GI50: 1.92 µM
  TGI: 4.67 µM
[42]
  GI50: 0.364 µM
  TGI: 2.65 µM
[43]
  GI50: 0.293 µM
  TGI: 1.4 µM
[44]
  GI50: 0.311 µM
  TGI: 1.3 µM
[45]
  GI50: 1.37 µM
  TGI: 2.67 µM
[46]
  GI50: 1.54 µM
  TGI: 4.11 µM
[47]
  GI50: 2.21 µM
  TGI: 7.59 µM
[48]
  GI50: 1.64 µM
  TGI: 9.65 µM
[49]
  GI50: 0.331 µM
  TGI: 1.56 µM
[50]
  GI50: 0.43 µM
  TGI: 1.9 µM
[51]
  GI50: 0.251 µM
  TGI: 0.774 µM
[52]
  GI50: 0.259 µM
  TGI: 0.928 µM
[53]
  GI50: 0.258 µM
  TGI: 0.746 µM
[54]
  GI50: 0.248 µM
  TGI: 0.686 µM
[55]
  GI50: 0.362 µM
  TGI: 1.48 µM
[56]
  GI50: 0.302 µM
  TGI: 1.66 µM

## CCOP(=O)(CCN1CCN(CCCCCOc2cc3c(cc2OC)C(=O)N2CCC[C@H]2C=N3)CC1)OCC
[1]
  GI50: 16.6 µM
  TGI: 38.4 µM
[2]
  GI50: 6.35 µM
  TGI: 20.4 µM
[3]
  GI50: 5.96 µM
  TGI: 31.7 µM
[4]
  GI50: 2.44 µM
  TGI: 9.38 µM
[57]
  GI50: 4.47 µM
  TGI: 30.5 µM
[5]
  GI50: 5.84 µM
  TGI: 97.9 µM
[6]
  GI50: 6.84 µM
  TGI: > 100 µM
[7]
  GI50: 17.1 µM
  TGI: 65.5 µM
[9]
  GI50: 12.5 µM
  TGI: 32 µM
[10]
  GI50: 1.93 µM
  TGI: 7.8 µM
[11]
  GI50: 22.8 µM
  TGI: > 100 µM
[12]
  GI50: 4.55 µM
  TGI: > 100 µM
[13]
  GI50: 12.6 µM
  TGI: 94.9 µM
[14]
  GI50: 6.14 µM
  TGI: 46.1 µM
[15]
  GI50: 3.39 µM
  TGI: 12.9 µM
[16]
  GI50: 23 µM
  TGI: > 100 µM
[17]
  GI50: 7.86 µM
  TGI: 24.2 µM
[18]
  GI50: 17.3 µM
  TGI: 38.1 µM
[19]
  GI50: 23.9 µM
  TGI: 99.8 µM
[20]
  GI50: 3.53 µM
  TGI: 49.6 µM
[21]
  GI50: 2.74 µM
  TGI: 18.7 µM
[22]
  GI50: 1.82 µM
  TGI: 8.39 µM
[23]
  GI50: 1.89 µM
  TGI: 23.8 µM
[24]
  GI50: 18.4 µM
  TGI: 47.7 µM
[25]
  GI50: 31.2 µM
  TGI: > 100 µM
[26]
  GI50: 15.8 µM
  TGI: 37.4 µM
[28]
  GI50: 2.37 µM
  TGI: > 100 µM
[30]
  GI50: 7.66 µM
  TGI: 80.8 µM
[31]
  GI50: 3.6 µM
  TGI: 17.7 µM
[32]
  GI50: 18.5 µM
  TGI: 50.4 µM
[34]
  GI50: > 100 µM
  TGI: > 100 µM
[35]
  GI50: 12.5 µM
  TGI: > 100 µM
[36]
  GI50: 8.01 µM
  TGI: 25.8 µM
[37]
  GI50: 12.1 µM
  TGI: 36.3 µM
[38]
  GI50: 7.48 µM
  TGI: 34.1 µM
[39]
  GI50: 1.35 µM
  TGI: 8.85 µM
[40]
  GI50: 8.55 µM
  TGI: 34.8 µM
[41]
  GI50: 3.36 µM
  TGI: 17.3 µM
[42]
  GI50: 3.54 µM
  TGI: 31.1 µM
[43]
  GI50: 80 µM
  TGI: > 100 µM
[44]
  GI50: 17.7 µM
  TGI: 44.8 µM
[45]
  GI50: 3.62 µM
  TGI: 23.8 µM
[46]
  GI50: 1.77 µM
  TGI: 6.59 µM
[47]
  GI50: 14.9 µM
  TGI: 57.1 µM
[48]
  GI50: 5.65 µM
  TGI: > 100 µM
[49]
  GI50: 5.18 µM
  TGI: > 100 µM
[50]
  GI50: 17.8 µM
  TGI: 63.3 µM
[52]
  GI50: 19.5 µM
  TGI: 47.8 µM
[58]
  GI50: 1.39 µM
  TGI: 4.25 µM
[53]
  GI50: 2.16 µM
  TGI: 6.37 µM
[55]
  GI50: 27.7 µM
  TGI: 76.6 µM
[56]
  GI50: 15 µM
  TGI: 43 µM

## CCOC(=O)c1c(SC)nc(-c2ccc(Cl)cc2)sc1=N
[1]
  TGI: 80.3 µM
[2]
  TGI: > 100 µM
[3]
  TGI: > 100 µM
[4]
  TGI: > 100 µM
[57]
  TGI: > 100 µM
[5]
  TGI: > 100 µM
[6]
  TGI: > 100 µM
[7]
  TGI: 80.4 µM
[8]
  TGI: 61.9 µM
[9]
  TGI: 52.7 µM
[11]
  TGI: > 100 µM
[12]
  TGI: > 100 µM
[13]
  TGI: > 100 µM
[14]
  TGI: > 100 µM
[15]
  TGI: 44.9 µM
[16]
  TGI: 95.7 µM
[17]
  TGI: > 100 µM
[18]
  TGI: 63.9 µM
[19]
  TGI: > 100 µM
[20]
  TGI: > 100 µM
[21]
  TGI: 54.5 µM
[22]
  TGI: 78.7 µM
[23]
  TGI: 83.4 µM
[24]
  TGI: 49 µM
[25]
  TGI: 80 µM
[26]
  TGI: > 100 µM
[27]
  TGI: > 100 µM
[28]
  TGI: > 100 µM
[29]
  TGI: > 100 µM
[30]
  TGI: 72 µM
[31]
  TGI: > 100 µM
[32]
  TGI: > 100 µM
[33]
  TGI: > 100 µM
[34]
  TGI: 73.5 µM
[35]
  TGI: > 100 µM
[36]
  TGI: > 100 µM
[37]
  TGI: > 100 µM
[38]
  TGI: > 100 µM
[39]
  TGI: 99.4 µM
[40]
  TGI: > 100 µM
[41]
  TGI: > 100 µM
[42]
  TGI: > 100 µM
[43]
  TGI: 73.9 µM
[44]
  TGI: > 100 µM
[45]
  TGI: 38.8 µM
[46]
  TGI: > 100 µM
[47]
  TGI: > 100 µM
[48]
  TGI: > 100 µM
[49]
  TGI: > 100 µM
[50]
  TGI: > 100 µM
[51]
  TGI: > 100 µM
[52]
  TGI: 55.2 µM
[53]
  TGI: 94 µM
[54]
  TGI: > 100 µM
[55]
  TGI: > 100 µM
[56]
  TGI: > 100 µM
